Here are results for one compound from paper PMC10804683, “Identification of the pyridoxal 5′‐phosphate allosteric site in human pyridox(am)ine 5′‐phosphate oxidase” (Protein Science : A Publication of the Protein Society, 2024).

The target of assay [1] is T1, human PNPO F48A/E50L/R258L variant (Homo sapiens, UniProt Q9NVS9, E50L/F48A/R258L).
T1 construct: a main form corresponding to the entire protein; made in house; host or cells: E. coli BL21(DE3)
T1 sequence (Q9NVS9 1-261 F48A/E50L/R258L): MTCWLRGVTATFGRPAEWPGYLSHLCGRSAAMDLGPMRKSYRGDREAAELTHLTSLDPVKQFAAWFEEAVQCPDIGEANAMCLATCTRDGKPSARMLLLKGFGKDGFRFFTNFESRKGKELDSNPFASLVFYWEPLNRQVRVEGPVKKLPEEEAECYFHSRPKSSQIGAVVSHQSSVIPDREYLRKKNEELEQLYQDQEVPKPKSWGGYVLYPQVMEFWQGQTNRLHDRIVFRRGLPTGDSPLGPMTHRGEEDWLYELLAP
The experiment in a line: PLP binding by DSF, triple variant. Particulars: 50 mM Na-HEPES pH 7.6, 2 μM enzyme. The text has this: (§1) PLP binding to PNPO can be detected and quantitatively measured using differential scanning fluorimetry (DSF) and also by measuring FMN fluorescence changes. We had previously attributed DSF changes to PLP binding at the active site, while FMN fluorescence changes were attributed to PLP binding at the allosteric site (Barile et al., [2019], [2020]). Previous experiments carried out with the PNPO R161C variant, affecting a residue that is essential for substrate binding and catalysis (and therefore also for PLP binding at the active site), confirms that DSF measurements only report PLP binding at the active site (Barile et al., [2021]; Table 1). […] We expected to observe no FMN fluorescence changes upon titration of the variants with PLP. However, this was not the case, and the dissociation constant values obtained by observing the FMN fluorescence emission were only up to threefold larger in the variants with respect to wild type PNPO (Figure 3). […] To check the second possibility, we measured intrinsic fluorescence changes of wild type and variant apo‐forms (i.e., without FMN) upon PLP titration. […]
(§2) FIGURE 2 DSF measurements with F48A (a), F48A/E50L/R258L (b), F48A/E50L/H248N/R258L (c), and 1‐31del PNPO variants in the presence of different PLP concentrations. Upper panels: Fluorescence change is expressed as fractional variation as a function of temperature. […]
(Differential scanning fluorimetry follows unfolding on heating by fluorescence.)

The target in assay [2] is T2, human PNPO F48A/E50L/H248N/R258L variant (Homo sapiens, UniProt Q9NVS9, E50L/F48A/H248N/R258L).
T2 construct: a main form corresponding to the entire protein; made in house; host or cells: E. coli BL21(DE3)
T2 sequence (Q9NVS9 1-261 F48A/E50L/H248N/R258L): T1 sequence (Q9NVS9 1-261 F48A/E50L/R258L) with H248N
The experiment in a line: PLP binding by DSF, quadruple variant. Conditions: 50 mM Na-HEPES pH 7.6, 2 μM enzyme.
Source text: as §1, §2

Assay [3] has as its target T3, human PNPO 1-31del variant (Homo sapiens, UniProt Q9NVS9).
T3 construct: a main form corresponding to the entire protein; made in house; host or cells: E. coli BL21(DE3)
T3 sequence (Q9NVS9 32-261): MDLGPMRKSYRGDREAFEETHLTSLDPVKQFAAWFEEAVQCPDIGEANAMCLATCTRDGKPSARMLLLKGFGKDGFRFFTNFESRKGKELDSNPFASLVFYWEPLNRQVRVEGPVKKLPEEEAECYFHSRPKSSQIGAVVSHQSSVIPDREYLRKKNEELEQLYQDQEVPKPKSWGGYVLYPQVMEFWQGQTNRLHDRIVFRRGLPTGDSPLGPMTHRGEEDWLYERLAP
The experiment in a line: PLP binding by DSF, 1-31del. Particulars: 50 mM Na-HEPES pH 7.6, 2 μM enzyme. The protocol:
FIGURE 2 DSF measurements with F48A (a), F48A/E50L/R258L (b), F48A/E50L/H248N/R258L (c), and 1‐31del PNPO variants in the presence of different PLP concentrations. Upper panels: Fluorescence change is expressed as fractional variation as a function of temperature. The experiment was carried out using 2 μM enzyme and different PLP concentrations (0, 0.78, 1.56, 3.13, 6.25, 12.5, 25, and 50 μM). Thermal denaturation data are fitted to the Boltzmann equation to obtain melting temperatures. Each curve is the average of three independent experiments with standard error bars. Lower panels: Saturation curves obtained by plotting the melting temperatures as a function of the PLP concentration. […] (μM)' of each lower plot.

For the next assay, the target named is T4, apo-PNPO F48A/E50L/R258L (Homo sapiens, UniProt Q9NVS9, E50L/F48A/R258L).
T4 construct: a main form corresponding to the entire protein; made in house; host or cells: E. coli BL21(DE3)
T4 sequence (Q9NVS9 1-261 F48A/E50L/R258L): T1 sequence (Q9NVS9 1-261 F48A/E50L/R258L)
The experiment in a line: PLP binding by intrinsic fluorescence, apo triple variant. Conditions: excitation 280 nm, 100 nM enzyme.
Source text: as §1
(§3) Analyses of PLP binding, based on FMN fluorescence increase observed upon binding of PLP to PNPO, were performed as described in Barile et al. ([2020]). […] Emission spectra were recorded from […], with excitation and emission slits set at 3 and 5 nm, respectively. […]

For assay [4], the target named is T5, apo-PNPO F48A/E50L/H248N/R258L (Homo sapiens, UniProt Q9NVS9, E50L/F48A/H248N/R258L).
T5 construct: a main form corresponding to the entire protein; made in house; host or cells: E. coli BL21(DE3)
T5 sequence (Q9NVS9 1-261 F48A/E50L/H248N/R258L): T1 sequence (Q9NVS9 1-261 F48A/E50L/R258L) with H248N
Put plainly: PLP binding by intrinsic fluorescence, apo quadruple variant. Conditions: excitation 280 nm, 100 nM enzyme.
Source text: as §1, §3

In assay [5] the target is human PNPO R161C variant (holo-enzyme). Also on record: method as in Barile et al. ([2021]). Particulars: FMN fluorescence changes, ref Barile et al. ([2021]), read-out: PLP binding KD^FLUO; cited from earlier work.

What is called Kd is a measure of binding affinity in units of concentration.

SMILES strings stand for the structures. Numbering of substitutions follows the chain as printed. “And” between values parts separate entries of the source, which are not always exact repeats. Equal entries are not always repeated. “Also recorded” adds a separate entry of the source.

With `Cc1ncc(COP(=O)(O)O)c(C=O)c1O` [PLP, pyridoxal 5′‐phosphate], the Kd was 6.28 µM and 6.3 µM in assay [1]; 6.07 µM and 6.1 µM in assay [2]; 3 ± 0.3 µM in assay [3]; 0.53 ± 0.08 µM in assay [5]. The “Apo-enzyme PLP binding KD^FLUO” value (at apo-PNPO F48A/E50L/R258L; in assay [4]) was “no change in fluorescence was observed; also recorded: No binding” in each case.
